Type in all cases: functional
For one assay, the system named is A549. Description: Antiproliferative activity against human A549 cells assessed as cell growth inhibition incubated for 72 hrs by MTT assay. (In general: Tetrazolium dyes change colour on reduction, which living cells bring about.)
A further assay concerns HCT-116. The assay can be described thus: Antiproliferative activity against human HCT-116 cells assessed as cell growth inhibition incubated for 72 hrs by MTT assay.
In another assay the test system is PC-3. The assay can be described thus: Antiproliferative activity against human PC-3 cells assessed as cell growth inhibition incubated for 72 hrs by MTT assay.

One may read the GI50 as the concentration giving 50% growth inhibition. With `O=C1/C(=N\Nc2ccccc2)C(c2ccccc2)=NN1c1ccccc1`, the GI50 with A549, in the assay on HCT-116 and with PC-3 was above 50 µM each time.

As for `CC(C)Oc1cc(F)ccc1N/N=C1\C(=O)N(c2ccc(C(=O)N3CCC(N(C)C)CC3)cc2)N=C1c1ccccc1`, the 50% growth inhibitory concentration (GI50) in the assay on A549 was found to be 6.13 µM; with HCT-116, 2.2 µM; with PC-3 it was 2.42 µM.

For `CN(C)C1CCN(C(=O)c2ccc(N3N=C(c4ccccc4)/C(=N/Nc4ccc5ccccc5c4)C3=O)cc2)CC1`, the concentration for 50% growth inhibition (GI50) with A549 was 4.52 µM; in the assay with HCT-116 it was 2.18 µM; in the assay on PC-3, 4.78 µM.

Consider `CN(C)C1CCN(C(=O)c2ccc(N3N=C(c4ccccc4)/C(=N/Nc4ccc(OCc5ccccc5)cc4)C3=O)cc2)CC1`, for which the figures for the GI50 with A549, with HCT-116 and with PC-3 were 5.03 µM, above 20 µM and above 20 µM, respectively.

For the molecule `O=C(c1ccc(N2N=C(c3ccccc3)/C(=N/Nc3ccccc3)C2=O)cc1)N1CCNCC1`, the 50% growth inhibitory concentration (GI50) in the assay with A549, in the assay on HCT-116 and in the assay with PC-3 was above 50 µM each time.

In the case of `O=C(c1ccc(N2N=C(c3ccccc3)/C(=N/Nc3ccccc3)C2=O)cc1)N1CCCCC1`, the GI50 in the assay on A549, with HCT-116 and in the assay with PC-3 was above 50 µM throughout.

For `O=C(c1cscn1)N1CCC(C2=NN(c3nc(-c4ccccc4)cs3)C(=O)/C2=N\Nc2nccs2)CC1`, the GI50 in the assay on A549, in the assay on HCT-116 and in the assay with PC-3 was above 50 µM throughout.

Consider `O=C1CCN(C(=O)c2ccc(N3N=C(c4ccccc4)/C(=N/Nc4ccccc4)C3=O)cc2)CC1`, for which the GI50 in the assay on A549, in the assay with HCT-116 and in the assay with PC-3 was above 50 µM in each case.

For `CC1CCN(C(=O)c2cccc(N3N=C(c4ccccc4)/C(=N/Nc4ccccc4)C3=O)c2)CC1`, the GI50 in the assay with A549 worked out at 2.72 µM; in the assay on HCT-116, 3.44 µM; in the assay with PC-3 it was 2.41 µM.

Regarding `CN(C)C1CCN(C(=O)c2cccc(N3N=C(c4ccccc4)/C(=N/Nc4ccccc4)C3=O)c2)CC1`, the results for the GI50 with A549, in the assay with HCT-116 and in the assay with PC-3 were 2.68 µM, 5.23 µM and 10.7 µM, respectively.

For the molecule `O=C(NCc1ccncc1)c1ccc(N2N=C(c3ccccc3)/C(=N/Nc3ccccc3)C2=O)cc1`, the GI50 was 11.5 µM with A549, 17.5 µM in the assay with HCT-116 and 12.6 µM in the assay on PC-3.

`CN(C)C1CCN(C(=O)c2ccc(N3N=C(c4ccccc4)/C(=C/NCc4ccccc4)C3=O)cc2)CC1`: the concentration for 50% growth inhibition (GI50) in the assay on A549, in the assay on HCT-116 and in the assay on PC-3 was above 20 µM each time.

For the molecule `CN(C)C1CCN(C(=O)c2ccc(N3N=C(c4ccccc4)/C(=C/Nc4ccccc4)C3=O)cc2)CC1`, the GI50 in the assay with A549 was above 20 µM; in the assay with HCT-116, 14.8 µM; in the assay with PC-3, above 20 µM.

As to `O=C(c1ccc(N2N=C(c3ccccc3)/C(=N\Nc3ccccc3)C2=O)cc1)N1CCC(N2CCCCC2)CC1`, the 50% growth inhibitory concentration (GI50) with A549 turned out to be 14.5 µM; with HCT-116, 8.75 µM; in the assay on PC-3, 12.8 µM.

For the molecule `CN1CCN(C(=O)c2ccc(N3N=C(c4ccccc4)/C(=N/Nc4ccccc4)C3=O)cc2)CC1`, the values for the 50% growth inhibitory concentration (GI50) in the assay on A549, in the assay on HCT-116 and in the assay on PC-3 were 22.9 µM, 21.9 µM and above 50 µM, respectively.

Turning to `CN(C)CCCNC(=O)c1ccc(N2N=C(c3ccccc3)/C(=N/Nc3ccccc3)C2=O)cc1`, the GI50 with A549 was found to be 3.32 µM; in the assay with HCT-116, 2.14 µM; in the assay with PC-3 it was 3.76 µM.

In the case of `O=C(c1ccc(N2N=C(c3ccccc3)/C(=N/Nc3ccccc3)C2=O)cc1)N1CCC2(CC1)CNC2`, the results for the GI50 in the assay on A549, in the assay on HCT-116 and with PC-3 were 4.69 µM, 4.12 µM and 5.6 µM, respectively.

Consider `CN(C)C1CCN(C(=O)c2ccc(N3N=C(c4ccccc4)/C(=N/Nc4cccnc4)C3=O)cc2)CC1`, for which the GI50 in the assay on A549 was found to be 4.22 µM; with HCT-116, 3.88 µM; in the assay with PC-3, 5.17 µM.

On to `CN(C)C1CCN(C(=O)c2ccc(N3N=C(c4ccccc4)CC3=O)cc2)CC1`, for which the GI50 in the assay with A549, in the assay with HCT-116 and in the assay with PC-3 was above 50 µM each time.

Consider `CN(C)C1CCN(C(=O)c2ccc(N3N=C(C4CC4)/C(=N/Nc4ccccc4)C3=O)cc2)CC1`, for which the concentration for 50% growth inhibition (GI50) was determined as 2.15 µM in the assay on A549, 4.38 µM with HCT-116 and 7.14 µM in the assay with PC-3.

For the molecule `O=C(c1ccc(N2N=C(c3ccccc3)/C(=N/Nc3ccccc3)C2=O)cc1)N1CCN(C2COC2)CC1`, the 50% growth inhibitory concentration (GI50) with A549, in the assay on HCT-116 and in the assay on PC-3 was above 50 µM throughout.

`CN(C)C(=O)c1ccc(N2N=C(c3ccccc3)/C(=N/Nc3ccccc3)C2=O)cc1`: the GI50 with A549, with HCT-116 and with PC-3 was above 50 µM each time.

On to `CN1CCC(NC(=O)c2cccc(N3N=C(c4ccccc4)/C(=N/Nc4ccccc4)C3=O)c2)CC1`, for which the 50% growth inhibitory concentration (GI50) with A549 is 9.06 µM; in the assay on HCT-116, 5.83 µM; in the assay on PC-3 it was 15 µM.

As for `CN(C)C1CCN(C(=O)c2ccc(N3N=C(c4ccccc4)C(=C4CCN(C(=O)c5cscn5)CC4)C3=O)cc2)CC1`, the 50% growth inhibitory concentration (GI50) amounted to 16.6 µM in the assay on A549, 11.7 µM with HCT-116 and 16.8 µM in the assay on PC-3.

With `CN(C)C1CCN(C(=O)c2ccc(N3N=C(c4ccccc4)C(=C4CCN(C(=O)c5ccc(O)cc5)CC4)C3=O)cc2)CC1`, the GI50 in the assay on A549 is 33.6 µM; with HCT-116, 34.7 µM; with PC-3, above 50 µM.

In the case of `O=C(c1ccccc1)N1CCC(C2=NN(c3nc(-c4ccccc4)cs3)C(=O)/C2=N\Nc2nccs2)CC1`, the GI50 in the assay on A549 is 28.7 µM; in the assay on HCT-116, above 50 µM; in the assay on PC-3, above 50 µM.

As for `COc1cc(N/N=C2\C(=O)N(c3ccc(C(=O)N4CCC(N(C)C)CC4)cc3)N=C2c2ccccc2)cc(OC)c1OC`, the GI50 with A549 came to 2.9 µM; in the assay on HCT-116, 5.51 µM; with PC-3, 5.77 µM.

`CN(C)C1CCN(C(=O)c2ccc(N3N=C(c4ccccc4)C(=C4CCN(C(=O)c5cc6cc(Cl)ccc6[nH]5)CC4)C3=O)cc2)CC1`: the 50% growth inhibitory concentration (GI50) in the assay on A549 was 43.6 µM; in the assay with HCT-116, above 50 µM; in the assay with PC-3, above 50 µM.

Consider `CC(C)(C)OC(=O)N1CCC2(CC1)CN(C(=O)c1ccc(N3N=C(c4ccccc4)/C(=N\Nc4ccccc4)C3=O)cc1)C2`, for which the GI50 is 25.5 µM in the assay on A549, 17.7 µM in the assay with HCT-116 and 19.9 µM in the assay with PC-3.

On to `CN1CCC(NC(=O)c2ccc(N3N=C(c4ccccc4)/C(=N/Nc4ccccc4)C3=O)cc2)CC1`, for which the figures for the GI50 in the assay with A549, in the assay with HCT-116 and in the assay with PC-3 were 4.44 µM, 4.13 µM and 6.45 µM, respectively.

`CS(=O)(=O)N1CCN(C(=O)c2ccc(N3N=C(c4ccccc4)/C(=N/Nc4ccccc4)C3=O)cc2)CC1`: the GI50 in the assay with A549, in the assay with HCT-116 and in the assay on PC-3 was above 50 µM each time.

The values are drawn from ChEMBL document CHEMBL5325413, “Optimization of BAX trigger site activator BTSA1 with improved antitumor potency and in vitro ADMET properties” (Eur J Med Chem, 2023).
